Earlier results in PMC8661056, “Synthesis and Evaluation of [^11C]7-Halogen-2-Phenyl Isoindolone Derivatives: Potential PET Radioligands for in vivo Imaging of 5-HT2C Receptors” (Frontiers in Neuroscience, 2021).

Assays:
[1] = test system: 5-HT2CR; parameters: method as in Kim et al., 2017; conditions: rat brain; ref Kim et al., 2017; cited from earlier work
[2] = target: 5HT2AR; parameters: method as in Finnema et al., 2014; conditions: ref Finnema et al., 2014; cited from earlier work
[3] = target: 5HT2CR; parameters: method as in Finnema et al., 2014; conditions: ref Finnema et al., 2014; cited from earlier work

C[C@H](Cc1cccc([18F])c1)Oc1nc(N2CCNC[C@H]2C)ncc1F [[^18F]4, [^18F]4-(3-Fluorophenethoxy)pyrimidine]
ratios of uptake in regions of interest to cerebellum [1]: low to moderate

COc1cc(CCNCc2ccccc2O[11CH3])c(OC)cc1Br [[^11C]Cimbi-36]
Ki [2]: 0.5 nM
Ki [3]: 1.7 nM
